The data set in a line: Solubility of sirolimus in solvents and dispersion media. The class given is physicochemical. On the procedure:
Solution 524 is a homogeneous mixture in which therapeutic substance 112 dissolves within a solvent or a solvent mixture. In one embodiment, solution 524 includes a high-capacity solvent 528 which is an organic solvent that has a high capacity to dissolve therapeutic substance 112. High capacity as utilized herein is defined as an ability to dissolve therapeutic substance 112 at concentrations greater than 500 mg of substance per milliliter of solvent. Examples of high capacity drug dissolving solvents for sirolimus and similar substances include but are not limited to tetrahydrofuran (THF), di-chloromethane (DCM), chloroform, and di-methyl-sulfoxide (DMSO). In addition to the high-capacity solvent, solution 524 may include an excipient 526 in order to assist in drug elution. In one embodiment, excipient 526 may be a surfactant such as but not limited to sorbitan fatty acid esters such as sorbitan monooleate and sorbitan monolaurate, polysorbates such as polysorbate 20, polysorbate 60, and polysorbate 80, cyclodextrins such as 2-hydroxypropyl-beta-cyclodextrin and 2,6-di-O-methyl-beta-cyclodextrin, sodium dodecyl sulfate, octyl glucoside, and low molecular weight poly(ethylene glycol)s. In another embodiment, excipient 526 may be a hydrophilic agent such as but not limited to salts such as sodium chloride and other materials such as urea, citric acid, and ascorbic acid. In yet another embodiment, excipient 526 may be a stabilizer such as but not limited to butylated hydroxytoluene (BHT). Depending on the desired drug load, a low capacity solvent can also be chosen for its reduced solubility of therapeutic substance 112. Low capacity is defined as an ability to dissolve therapeutic substance 112 at concentrations typically below 500 mg of drug per milliliter solvent. Examples of low capacity drug dissolving solvents for sirolimus and similar substances include but are not limited to methanol, ethanol, propanol, acetonitrile, ethyl lactate, acetone, and solvent mixtures like tetrahydrafuran/water (9:1 weight ratio). […]

One compound from patent US20120067455A1, “Apparatus and Methods for Loading a Drug Eluting Medical Device” (Medtronic Vascular, Inc., priority 2010, published 2012) can be followed below.

Regarding `CO[C@H]1C[C@@H]2CC[C@@H](C)[C@@](O)(O2)C(=O)C(=O)N2CCCC[C@H]2C(=O)O[C@H]([C@H](C)C[C@@H]2CC[C@@H](O)[C@H](OC)C2)CC(=O)[C@H](C)/C=C(\C)[C@@H](O)[C@@H](OC)C(=O)[C@H](C)C[C@H](C)/C=C/C=C/C=C/1C` [sirolimus], where the note is “SCCO2”, the “solubility in supercritical carbon dioxide” value was “low capacity”. Moreover, the solubility in hexane result (hexane) was “insoluble”. In addition, the solubility in water entry (water) was “insoluble”.
